Measurements taken from US8785457B2 (Cellzome Limited, priority 2009, dated 2014).
Like-named read-outs stand apart in the source and are kept apart here.

Tests used:
PI3K delta (PI3 Kd) = target: T1, PI3K delta (PI3 Kd) (Homo sapiens, UniProt O00329); assay: kinobeads assay, PI3K delta; assay type: binding
T1 construct: endogenous in cells; host or cells: Jurkat, clone E6-1 (ATCC TIB-152) cell lysate
Procedure, shortened: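 IC50 values came from dose-response curves after test compound (1:3 series) competed with an immobilized phenylmorpholin-chromen affinity matrix for kinases in Jurkat lysate at 5 mg/mL protein. Eluted captured DNA-PK and PI3Kδ were measured by specific-antibody dot blot and infrared imaging. Buffer was Tris pH 7.4, NP40, MgCl2, NaCl, vanadate, DTT, NaF.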

mTOR = target: T2, mTOR (Homo sapiens, UniProt P42345); assay: mTOR kinobeads assay (competitive binding in Jurkat cell lysate, immunodetection)
T2 construct: endogenous in cells; host or cells: Jurkat, clone E6-1 (ATCC TIB-152) cell lysate
Procedure, shortened: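 IC50 derived from dose-response curves of mTOR captured on immobilized phenylmorpholin-chromen beads, detected by antibody dot blot with infrared fluorescence.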

[1] = kinobeads assay, Table 4, read-out: Inhibition values (IC50) PI3Kd
[2] = kinobeads assay, Table 6, read-out: Inhibition values (IC50) PI3Kd
[3] = kinobeads assay, Table 4, read-out: Inhibition values (IC50) mTor
[4] = kinobeads assay, Table 6, read-out: Inhibition values (IC50) mTOR
[5] = Further Kinobeads Data, read-out: PI3Kd
[6] = Further Kinobeads Data, read-out: mTor

T1 sequence (O00329 whole entry): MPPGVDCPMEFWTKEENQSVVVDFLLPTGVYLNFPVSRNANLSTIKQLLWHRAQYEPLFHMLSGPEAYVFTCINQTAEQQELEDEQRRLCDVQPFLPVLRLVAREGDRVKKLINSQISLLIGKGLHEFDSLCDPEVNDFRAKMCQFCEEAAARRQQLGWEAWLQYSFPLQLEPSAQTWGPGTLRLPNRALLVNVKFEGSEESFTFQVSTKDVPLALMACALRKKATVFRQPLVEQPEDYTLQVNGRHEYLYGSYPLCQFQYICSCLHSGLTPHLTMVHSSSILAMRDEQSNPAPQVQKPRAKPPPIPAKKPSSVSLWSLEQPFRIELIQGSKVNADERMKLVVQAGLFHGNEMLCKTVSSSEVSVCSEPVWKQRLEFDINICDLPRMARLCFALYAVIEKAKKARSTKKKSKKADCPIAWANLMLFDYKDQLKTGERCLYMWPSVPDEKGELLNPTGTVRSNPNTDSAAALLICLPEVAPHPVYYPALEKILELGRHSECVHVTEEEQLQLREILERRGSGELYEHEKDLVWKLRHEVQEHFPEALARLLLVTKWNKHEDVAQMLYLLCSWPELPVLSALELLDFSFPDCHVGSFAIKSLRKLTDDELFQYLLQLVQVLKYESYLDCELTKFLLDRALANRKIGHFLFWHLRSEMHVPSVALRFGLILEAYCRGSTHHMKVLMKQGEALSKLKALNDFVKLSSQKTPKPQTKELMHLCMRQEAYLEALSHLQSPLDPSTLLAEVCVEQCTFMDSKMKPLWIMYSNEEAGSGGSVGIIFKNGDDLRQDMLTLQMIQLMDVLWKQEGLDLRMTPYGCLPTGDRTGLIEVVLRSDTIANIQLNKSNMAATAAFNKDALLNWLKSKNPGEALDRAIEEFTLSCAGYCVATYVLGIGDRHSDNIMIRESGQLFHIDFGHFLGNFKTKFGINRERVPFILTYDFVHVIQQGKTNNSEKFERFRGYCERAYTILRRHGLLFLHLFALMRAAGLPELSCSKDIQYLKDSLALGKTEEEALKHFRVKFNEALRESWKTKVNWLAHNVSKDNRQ
T1 sequence (P27986 whole entry partner): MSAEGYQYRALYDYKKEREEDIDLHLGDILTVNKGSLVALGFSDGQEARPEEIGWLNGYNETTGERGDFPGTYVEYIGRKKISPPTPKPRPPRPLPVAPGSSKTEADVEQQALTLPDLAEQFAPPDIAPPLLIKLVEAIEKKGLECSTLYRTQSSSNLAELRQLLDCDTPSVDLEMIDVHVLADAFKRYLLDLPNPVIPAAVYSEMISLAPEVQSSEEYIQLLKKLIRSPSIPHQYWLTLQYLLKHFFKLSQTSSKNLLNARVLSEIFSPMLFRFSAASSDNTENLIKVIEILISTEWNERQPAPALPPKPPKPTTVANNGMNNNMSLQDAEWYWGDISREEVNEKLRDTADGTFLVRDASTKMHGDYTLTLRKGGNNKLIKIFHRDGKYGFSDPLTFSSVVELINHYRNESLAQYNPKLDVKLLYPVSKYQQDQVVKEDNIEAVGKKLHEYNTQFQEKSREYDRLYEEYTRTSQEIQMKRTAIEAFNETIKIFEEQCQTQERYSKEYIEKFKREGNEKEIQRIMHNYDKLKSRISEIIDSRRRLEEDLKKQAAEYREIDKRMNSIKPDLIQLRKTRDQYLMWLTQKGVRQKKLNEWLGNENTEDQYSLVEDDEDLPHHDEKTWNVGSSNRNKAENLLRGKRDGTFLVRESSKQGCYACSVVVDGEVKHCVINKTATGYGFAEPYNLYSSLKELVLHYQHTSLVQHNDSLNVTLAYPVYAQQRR

| SMILES | IC50 (PI3K delta (PI3 Kd); [1]) | IC50 (PI3K delta (PI3 Kd); [2]) | IC50 (mTOR; [3]) | IC50 (mTOR; [4]) | IC50 (PI3K delta (PI3 Kd); [5]) | IC50 (mTOR; [6]) |
| --- | --- | --- | --- | --- | --- | --- |
| CC(C)C(=O)N1Cc2nc(-c3ccc(NC(=O)NC4CC4)cc3)nc(N3CCOC[C@@H]3C)c2C1 [Example 44, (S)-1-cyclopropyl-3-(4-(6-isobutyryl-4-(3-methylmorpholino)-6,7-dihydro-5H-pyrrolo[3,4-d]pyrimidin-2-yl)phenyl)urea] | > 10000 nM | > 10000 nM | < 100 nM | < 100 nM |  |  |
| C[C@H]1COCCN1c1nc(-c2ccc(NC(=O)NC3CC3)cc2F)nc2c1CN(C(=O)N(C)C)C2 [Example 178, (S)-2-(4-(3-cyclopropylureido)-2-fluorophenyl)-N,N-dimethyl-4-(3-methylmorpholino)-5H-pyrrolo[3,4-d]pyrimidine-6(7H)-carboxamide] |  |  |  |  | > 10000 nM | 100 to 1000 nM |
| C[C@H]1COCCN1c1nc(-c2ccc(NC(=O)NC3CC3)cc2)nc2c1CCN(CC1CC1)C2 [Example 40, (S)-1-cyclopropyl-3-(4-(7-(cyclopropylmethyl)-4-(3-methylmorpholino)-5,6,7,8-tetrahydropyrido[3,4-d]pyrimidin-2-yl)phenyl)urea] | > 10000 nM | > 10000 nM | < 100 nM | < 100 nM |  |  |
| CCCNC(=O)Nc1ccc(-c2nc3c(c(N4CCOC[C@@H]4C)n2)CN(CC2CC2)C3)cc1 [Example 49, (S)-1-(4-(6-(cyclopropylmethyl)-4-(3-methylmorpholino)-6,7-dihydro-5H-pyrrolo[3,4-d]pyrimidin-2-yl)phenyl)-3-propylurea] | > 10000 nM | > 10000 nM | 100 to 1000 nM | 100 to 1000 nM |  |  |
| C[C@H]1COCCN1c1nc(-c2ccc(NC(N)=O)cc2)nc2c1CN(CC1CC1)C2 [Example 48, (S)-1-(4-(6-(cyclopropylmethyl)-4-(3-methylmorpholino)-6,7-dihydro-5H-pyrrolo[3,4-d]pyrimidin-2-yl)phenyl)urea] | 1000 to 10000 nM | 1000 to 10000 nM | 100 to 1000 nM | 100 to 1000 nM |  |  |
| CC(C)N1Cc2nc(-c3ccc(NC(=O)NCCF)cc3F)nc(N3CCOC[C@@H]3C)c2C1 [Example 186, (S)-1-(3-fluoro-4-(6-isopropyl-4-(3-methylmorpholino)-6,7-dihydro-5H-pyrrolo[3,4-d]pyrimidin-2-yl)phenyl)-3-(2-fluoroethyl)urea] |  |  |  |  | 1000 to 10000 nM | < 100 nM |
| CCNC(=O)Nc1ccc(-c2nc3c(c(N4CCOC[C@@H]4C)n2)CN(C(=O)C2CC2)C3)cc1 [Example 23, (S)-1-(4-(6-(cyclopropanecarbonyl)-4-(3-methylmorpholino)-6,7-dihydro-5H-pyrrolo[3,4-d]pyrimidin-2-yl)phenyl)-3-ethylurea] | 1000 to 10000 nM | 1000 to 10000 nM | < 100 nM | < 100 nM |  |  |
| CCN1Cc2nc(-c3ccc(NC(=O)NC4CC4)cc3)nc(N3CCOC[C@@H]3C)c2C1 [Example 36, (S)-1-cyclopropyl-3-(4-(6-ethyl-4-(3-methylmorpholino)-6,7-dihydro-5H-pyrrolo[3,4-d]pyrimidin-2-yl)phenyl)urea] | > 10000 nM | > 10000 nM | < 100 nM | < 100 nM |  |  |
| CC(C)N1Cc2nc(-c3ccc(NC(=O)NC4CC4)cc3F)nc(N3CCOC[C@@H]3C)c2C1 [Example 172, (S)-1-cyclopropyl-3-(3-fluoro-4-(6-isopropyl-4-(3-methylmorpholino)-6,7-dihydro-5H-pyrrolo[3,4-d]pyrimidin-2-yl)phenyl)urea] |  |  |  |  | 1000 to 10000 nM | < 100 nM |
| C[C@H]1COCCN1c1nc(-c2ccc(NC(=O)NC3CC3)cc2)nc2c1CN(C(=O)C(C)(C)C)C2 [Example 45, (S)-1-cyclopropyl-3-(4-(4-(3-methylmorpholino)-6-pivaloyl-6,7-dihydro-5H-pyrrolo[3,4-d]pyrimidin-2-yl)phenyl)urea] | > 10000 nM | > 10000 nM | 100 to 1000 nM | 100 to 1000 nM |  |  |
| C[C@H]1COCCN1c1nc(-c2ccc(NC(=O)NC3CC3)cc2F)nc2c1CN(S(C)(=O)=O)C2 [Example 177, (S)-1-cyclopropyl-3-(3-fluoro-4-(4-(3-methylmorpholino)-6-(methylsulfonyl)-6,7-dihydro-5H-pyrrolo[3,4-d]pyrimidin-2-yl)phenyl)urea] |  |  |  |  | > 10000 nM | < 100 nM |
| CC(C)C(=O)N1Cc2nc(-c3ccc(NC(=O)NC4CC4)cc3F)nc(N3CCOC[C@@H]3C)c2C1 [Example 174, (S)-1-cyclopropyl-3-(3-fluoro-4-(6-isobutyryl-4-(3-methylmorpholino)-6,7-dihydro-5H-pyrrolo[3,4-d]pyrimidin-2-yl)phenyl)urea] |  |  |  |  | > 10000 nM | < 100 nM |
| CCNC(=O)Nc1cc(F)c(-c2nc3c(c(N4CCOC[C@@H]4C)n2)CN(C(=O)OCC)C3)cc1F [Example 141, (S)-ethyl 2-(4-(3-ethylureido)-2,5-difluorophenyl)-4-(3-methylmorpholino)-5H-pyrrolo[3,4-d]pyrimidine-6(7H)-carboxylate] |  |  |  |  | > 10000 nM | 1000 to 10000 nM |
| CC(C)NC(=O)Nc1ccc(-c2nc3c(c(N4CCOC[C@@H]4C)n2)CN(CC2CC2)C3)cc1 [Example 50, (S)-1-(4-(6-(cyclopropylmethyl)-4-(3-methylmorpholino)-6,7-dihydro-5H-pyrrolo[3,4-d]pyrimidin-2-yl)phenyl)-3-isopropylurea] | > 10000 nM | > 10000 nM | 100 to 1000 nM | 100 to 1000 nM |  |  |
| CCNC(=O)Nc1ccc(-c2nc3c(c(N4CCOC[C@@H]4C)n2)CN(C(=O)c2ccc(F)cc2)C3)cc1 [Example 19, (S)-1-ethyl-3-(4-(6-(4-fluorobenzoyl)-4-(3-methylmorpholino)-6,7-dihydro-5H-pyrrolo[3,4-d]pyrimidin-2-yl)phenyl)urea] | > 10000 nM | > 10000 nM | 100 to 1000 nM | 100 to 1000 nM |  |  |
| CCNC(=O)Nc1ccc(-c2nc3c(c(N4CCOC[C@@H]4C)n2)CN(C(=O)OC(C)(C)C)C3)c(F)c1 [Example 153, (S)-tert-butyl 2-(4-(3-ethylureido)-2-fluorophenyl)-4-(3-methylmorpholino)-5H-pyrrolo[3,4-d]pyrimidine-6-(7H)-carboxylate] |  |  |  |  | > 10000 nM | < 100 nM |
| COC(=O)N1Cc2nc(-c3ccc(NC(=O)NCCF)cc3F)nc(N3CCOC[C@@H]3C)c2C1 [Example 183, (S)-methyl 2-(2-fluoro-4-(3-(2-fluoroethyl)ureido)phenyl)-4-(3-methylmorpholino)-5H-pyrrolo[3,4-d]pyrimidine-6(7H)-carboxylate] |  |  |  |  | > 10000 nM | 100 to 1000 nM |
| C[C@H]1COCCN1c1nc(-c2ccc(NC(=O)NC3CC3)cc2)nc2c1CCN(CC(C)(C)C)C2 [Example 41, (S)-1-cyclopropyl-3-(4-(4-(3-methylmorpholino)-7-neopentyl-5,6,7,8-tetrahydropyrido[3,4-d]pyrimidin-2-yl)phenyl)urea] | > 10000 nM | > 10000 nM | 100 to 1000 nM | 100 to 1000 nM |  |  |
| C[C@H]1COCCN1c1nc(-c2ccc(NC(=O)NC3CCC3)cc2)nc2c1CN(C)C2 [Example 55, (S)-1-cyclobutyl-3-(4-(6-methyl-4-(3-methylmorpholino)-6,7-dihydro-5H-pyrrolo[3,4-d]pyrimidin-2-yl)phenyl)urea] |  |  | 100 to 1000 nM | 100 to 1000 nM |  |  |
| COC(=O)N1Cc2nc(-c3ccc(NC(=O)NCCF)cc3F)nc(N3CCOCC3)c2C1 [Example 169, Methyl 2-(2-fluoro-4-(3-(2-fluoroethyl)ureido)phenyl)-4-morpholino-5H-pyrrolo[3,4-d]pyrimidine-6(7H)-carboxylate] |  |  |  |  |  | < 100 nM |
